# From patent US5840859A, “(Aminostyryl)pyridinium compounds for radiolabelling cell membranes” (Research Corporation Technologies, Inc., priority 1996, dated 1998)
# Tests used:
# mixed leukocytes = assay: Mixed leukocyte labeling yield; type: cell-based, canine; settings: for Mixed leukocyte labeling yield: 125I labeled, average, 10-30 μCi, 250-325 Ci/mmol
# Experimental: Labeling of mixed leukocytes (harvested from 20 mL canine blood) with 4a-d was performed using five different procedures: 1) labeling in Diluent C (a commercial non-ionic cell labeling media developed by Zynaxis Co. that is not approved for human use) after two saline washes of the cell pellet; 2) labeling in saline after two saline washes of the cell pellet; 3) labeling in saline with no saline washes of the cell pellet; 4 and 5) labeling in ether 10% or 100% platelet poor plasma (PPP).
# Unwashed mixed leukocytes in 1.5 mL 10% PPP in saline were also tested. […]
# This was evaporated to dryness under vacuum in a speed vac and reconstituted into 30 ul ethanol. Forty milliliters of canine blood was drawn into a 60 mL syringe containing 6.5 mL acetate-citrate-dextrose solution. To this was added 5.5 mL 2% methyl cellulose in saline. The contents of the syringe were gently mixed by several inversions of the syringe and the syringe placed vertically, needle end up, for 45 minutes to allow the red blood cells to settle. The plasma was drawn off and placed into a 50 mL Falcon tube. The tube was centrifuged at 1100 rpm for 15 minutes to pellet the leukocytes. The plasma was removed and the cells resuspended in 2 mL saline. In a 1 mL plastic microcentrifuge was placed 0.5 mL saline. […] The cells were then underlayered with 7.5 mL of platelet poor plasma and centrifuged at 1600 rpm for seven minutes to pellet the cells. The supernatant was removed, the cells resuspended in 10 mL saline, and transferred to a new tube. The supernatant, cells, and labeling tube were counted for radioactivity. The cells were centrifuged again at 1600 rpm for 7 minutes, the supernatant removed, and the cells resuspended.
# A sample of canine blood (20 mL) was drawn into a 60 mL syringe containing 3 mL acetate-citrate-dextrose (ACD) solution. To this was added 3 mL 2% methyl cellulose in saline. The contents of the syringe were gently mixed by several inversions, and the syringe was then placed vertically, needle end up, for 45 min to allow the red blood cells to settle. The plasma was drawn off and transferred to a 50 mL Falcon tube. The tube was centrifuged at 1100 rpm for 15 min to pellet the leukocytes. The plasma was removed and the cells resuspended in 10 mL saline. The tube was centrifuged at 1600 rpm for 7 min, the supernatant removed, and the cells resuspended in 10 mL saline and recentrifuged at 1600 rpm for 7 min. The supernatant was then removed and the cells resuspended in 2 mL Diluent C. Into a 1 mL plastic microcentrifuge tube was placed 0.5 mL Diluent C. […] The indium complex in Diluent C was immediately added to the leukocytes and the cells were placed vertically on a Nutator rocking apparatus and rocked gently for 30 min at room temperature. The cells were then underlayered with 5 mL of platelet poor plasma and centrifuged at 1600 rpm for 7 min to pellet the cells. The supernatant was removed, the cells resuspended in 10 mL saline, and transferred to a new tube. The supernatant, cells, and labeling tube were counted for radioactivity. The cells were centrifuged again at 1600 rpm for 7 min, the supernatant removed, and the cells resuspended.
# rat splenic lymphocytes [1] = assay: Lymphocyte labeling yield, rat splenic lymphocytes; type: cell-based
# Experimental: (§1) Peripheral blood lymphocytes (PBLs) from dogs and rats as well as rat splenic lymphocytes were labeled in high yields with either 4a or 4b (Table 2). Viability of labeled lymphocytes was >90% both before and after radiolabeling (Trypan Blue exclusion test).
# A 400 g Sprague-Dawley rat was sacrificed to remove the spleen (1.133 g). The spleen was perfused with phosphate buffered saline to remove the lymphocytes. The lymphocytes in 10 mL PBS were split into two equal portions and each portion was layered onto 5 mL of Lympholyte-Rat (Cedar Lane Laboratories Limited, Ontario, Canada) in a separate 15 mL centrifuge tube. The tubes were centrifuged at 2700 rpm for 20 minutes at room temperature. The lymphoctyes appeared as a layer at the interface of the saline and Lympholyte-Rat layers. The saline layer was removed and discarded. The lymphocyte containing layer from each tube was removed and transferred to a single 50 mL Falcon tube. To this tube was added 10 mL saline and the tube centrifuged for 7 minutes at 1600 rpm. The supernatant was removed, the cells resuspended in 10 mL saline, and centrifuged at 1600 rpm for 7 minutes. The supernatant was removed and the cells suspended in 1 mL saline. […] […] To these cells was added 20 ul of an ethanolic solution of 3-[4-[2-(N,N-dihexylamino)phenyl]ethyenyl]pyridino-E-1-[^125 I]-iodo-propene (15.6 uCi) dissolved in 500 ul of saline. The cells were place vertically on a Nutator rocking apparatus and rocked gently for 20 minutes at room temperature. The cells were then underlayered with 7.5 mL of saline and centrifuged at 1600 rpm for seven minutes to pellet the cells. The supernatant was removed, the cells resuspended in 10 mL saline, and transferred to a new tube. The supernatant, cells, and labeling tube were counted for radioactivity. The cells were centrifuged again at 1600 rpm for 7 minutes, the supernatant removed, and the cells resuspended. After the second centrifugation, 11.9uCi (77%) of ^131 I was bound to the lymphocytes. After labeling, 12% of the cells were dead by the trypan blue exclusion test.
# [2] = Viability of labeled lymphocytes (Trypan Blue exclusion test); type: cell-based, dog and rat; settings: before and after radiolabeling
# Description: as §1
# [3] = Rat splenic lymphocyte survival after labeling (Trypan blue exclusion test); type: cell-based; settings: rat, splenic lymphocytes; Example 11, trypan blue; 12% dead before labeling; read-out: dead cells after labeling
# Experimental: (§2) A 400 g Sprague-Dawley rat was sacrificed to remove the spleen (1.133 g). The spleen was perfused with phosphate buffered saline to remove the lymphocytes. The lymphocytes in 10 mL PBS were split into two equal portions and each portion was layered onto 5 mL of Lympholyte-Rat (Cedar Lane Laboratories Limited, Ontario, Canada) in a separate 15 mL centrifuge tube. The tubes were centrifuged at 2700 rpm for 20 minutes at room temperature. The lymphoctyes appeared as a layer at the interface of the saline and Lympholyte-Rat layers. The saline layer was removed and discarded. The lymphocyte containing layer from each tube was removed and transferred to a single 50 mL Falcon tube. To this tube was added 10 mL saline and the tube centrifuged for 7 minutes at 1600 rpm. The supernatant was removed, the cells resuspended in 10 mL saline, and centrifuged at 1600 rpm for 7 minutes. The supernatant was removed and the cells suspended in 1 mL saline. Using a hemocytometer, a total of 5 million lymphocytes were counted. […] To these cells was added 20 ul of an ethanolic solution of 3-[4-[2-(N,N-dihexylamino)phenyl]ethyenyl]pyridino-E-1-[^125 I]-iodo-propene (15.6 uCi) dissolved in 500 ul of saline. The cells were place vertically on a Nutator rocking apparatus and rocked gently for 20 minutes at room temperature. […] The supernatant, cells, and labeling tube were counted for radioactivity. […]
# rat splenic lymphocytes [4] = assay: as above; type: cell-based; settings: Example 11, trypan blue
# Experimental: as §2
# [5] = tested on: sodium urate induced abscess in the stifle joint; assay: Localization of labeled leukocytes in dogs having a sodium urate induced abscess in the stifle joint (aspirate, gamma camera images)
# Description: Mixed leukocytes labeled with 4b and ^111 In-oxine labeled mixed leukocytes were compared in dogs having a sodium urate-induced inflammation in the left stifle joint. […]
# mononuclear leukocytes = assay: Mononuclear leukocyte labeling yield; type: cell-based; settings: harvested from 20 mL canine blood via isolymph method
# Experimental: Using ^125 I-4b and ^131 I-4b, mononuclear leukocytes harvested from 20 mL canine blood via the isolymph method (sodium diatrizoste and Ficol 400, d=1.077) were labeled in 77% and 85% yields, respectively. Thus, the present compounds can label both lymphocytes and mixed leukocytes in high yields, and that the latter can be used to image sites of focal inflammation.
smiles,measurement,setting,value
CCCCN(CCCC)c1ccc(/C=C/c2cc[n+](C/C=C/[125I])cc2)cc1 [Compound 4a],Mixed leukocyte labeling yield,mixed leukocytes; 10% PPP in saline,41%
same,Mixed leukocyte labeling yield,mixed leukocytes; Diluent C,75%
same,Mixed leukocyte labeling yield,"mixed leukocytes; saline, 2 washes of pellet",72%
same,Mixed leukocyte labeling yield,"mixed leukocytes; saline, no washes of pellet",71%
same,Leukocyte labeling (in words),"mixed leukocytes; Diluent C, or saline with or without washes of the cell pellet",labeled leukocytes in high yield
same,Lymphocyte labeling (in words),rat splenic lymphocytes [1]; PBLs from dogs and rats and rat splenic lymphocytes,high yields
same,Lymphocyte labeling yield,"rat splenic lymphocytes [1]; Rat spleen, Lympholyte-Rat, 63-300 × 10^6 cells, PBS, 125I, average",71%
same,viability,[2],> 90%
"CCCCCCN(CCCCCC)c1ccc(/C=C/c2cc[n+](C/C=C/[125I])cc2)cc1 [^125 I-4b, 3-[4-[2-(N,N-dihexylamino)phenyl]ethyenyl]pyridino-E-1-[^125 I]-iodo-propene]",cytotoxicity,[3],12%
same,effect of labeling on cell survival,rat splenic lymphocytes [4],the labeling did not affect cell survival
same,Labeling Yield,"mixed leukocytes; 1.5 ml saline, pellet not washed",80%
same,Labeling Yield,"mixed leukocytes; 1.5 ml saline, pellet washed with 1×10 mL saline",84%
same,Labeling Yield,"mixed leukocytes; 1.5 ml saline, pellet washed with 2×10 mL saline",82%
same,Labeling Yield,"mixed leukocytes; Table 3 Experiment 1, 4b 250 Ci/mmol, Diluent C after 2 × 10 mL saline washes",84%
same,Labeling Yield,"mixed leukocytes; Table 3 Experiment 2, 4b footnotes a,c (250 / 1000 Ci/mmol)",88%
same,Labeling Yield,"mixed leukocytes; unwashed, 1.5 mL 10% PPP in saline",83%
same,131I/111In or 125I/111In in aspirate,[5]; Experiment 1,1.65
same,% aspirate radioactivity cell bound,[5]; Experiment 1,98%
same,% inj. dose in abscess aspirate,"[5]; Experiment 1, injected 84 μCi 125I-4b, 500 μCi 111In-oxine, Diluent C",0.594%
same,131I/111In or 125I/111In in aspirate,[5]; Experiment 2,6.0
same,% aspirate radioactivity cell bound,[5]; Experiment 2,96%
same,% inj. dose in abscess aspirate,"[5]; Experiment 2, injected 66 μCi 125I-4b, 312 μCi 111In-oxine",0.527%
same,"localization of labeled leukocytes in induced inflammatory site/abscess, compared with 111In-oxine (111In-labeled) leukocytes","[5]; sodium urate induced abscess, dog",higher degree of localization
same,Mononuclear leukocyte labeling yield,mononuclear leukocytes,77%
same,radioactivity bound to the lymphocytes (labeling yield),"rat splenic lymphocytes [1]; Example 11, 5 million lymphocytes, saline, 15.6 uCi, 20 min, room temperature",77%
same,radioactivity bound to the lymphocytes,"rat splenic lymphocytes [1]; Example 11, of 15.6 uCi added",11.9 uCi
